Experimental data reported in patent US20260364089A1, “PYRIDOPYRIMIDINE KRAS INHIBITORS” (Treeline Biosciences, Inc., priority 2022, published 2026).

Assays:
Format in all cases: biochemical
KRas G12V = target: T1, KRas G12V (Homo sapiens, UniProt P01116, G12V); assay: SOS1-Catalyzed Nucleotide Exchange Assay, KRas G12V (Method 1); conditions: 5 nM KRas G12V (aa 1-169, GDP-loaded), 50 nM SOS1
T1 construct: Biotinylated KRas G12V (aa 1-169) loaded with GDP nucleotide; biotin (biotinylated)
Protocol: KRas G12V [Method 1]: Biotinylated KRas G12V (aa 1-169) loaded with GDP nucleotide and Streptavidin-Europium (SA-EU, Columbia Biosciences) were preincubated in assay buffer (20 mM HEPES pH 7.4, 150 mM NaCl, 5 mM MgCl2, 1 mM DTT, 0.01% Brij-35, 0.3 mg/mL BSA) on ice for 30 min. Separately SOS1 (aa 546-1049) and EDA-GTP-DY647P1 (Jena Bioscience) were preincubated in assay buffer on ice for 30 min. After pre-incubation, 5 μL buffer and 5 μL of KRas G12V-SA-Eu were added to each well of a white, low-volume, non-binding 384-well plate. Compounds were then added to respective wells with a Tecan D300e liquid dispenser. A 10-point concentration response curve for each compound was prepared with appropriate top concentration (1 μM, 10 μM, or 300 μM) and incubated for 30 min. 5 μL of SOS1-EDA-GTP-D467P1 was added to start the nucleotide exchange reaction. Final concentration in the assay were 5 nM KRas G12V, 50 nM SOS1 (aa 564-1049). The reaction was allowed to proceed for 60-90 minutes after which the plate was read on a PHERAstar FSX plate reader (exc: 337 nm, em 1: 665 nm, em 2: 620 nm). After normalization of the raw data (ratio of Signal665nm/Signal620nm) the data was fit to a four-parameter logistic curve in GraphPad Prism (v9.4.1).

KRas G12R = target: T2, KRas G12R (Homo sapiens, UniProt P01116, G12R); assay: SOS1-Catalyzed Nucleotide Exchange Assay, KRas G12R; conditions: 10 nM KRas G12R (1-169, GDP-loaded), 200 nM SOS1
T2 construct: KRas G12R (1-169) loaded with GDP nucleotide; biotin (biotinylated)
Protocol: (§1) KRas G12R and WT: Compounds were pre-dispensed using acoustic transfer technology into a black, low volume 384-well assay plate. A 10-point dose response of each compound was performed with a 30 μM top dose. Biotinylated KRas WT(1-169) or KRas G12R (1-169) loaded with GDP nucleotide was mixed with Streptavidin-Tb cryptate (Cisbio) in assay buffer (20 mM HEPES pH 7.4, 150 mM NaCl, 2 mM MgCl2, and 0.005% CA680) to produce a 1.5× solution. 10 μL of the 1.5× KRas-cryptate solution was added to wells of a black, low-volume 384-well assay plate. The KRas/cryptate-compound mixture was incubated for 1 hour at room temperature. A 3× solution of SOS1 (564-1049) and EDA-GTP-DY-647P1 (Jena Bioscience) was prepared in assay buffer. 5 μL of the SOS1-labeled GTP solution was added to the wells to initiate the nucleotide exchange reaction. The final concentration of KRas G12R and SOS1 were 10 nM and 200 nM, respectively. The final concentration of KRas WT and SOS1 were 20 nM and 10 nM, respectively. The plate was allowed to incubate for 1 hr, then time resolved fluorescence was read on a PHERAstar plate reader equipped with a filter module with excitation=337 nm and emission 1=620 nm, emission 2=665 nm. The TR-FRET signal was calculated as the ratio of fluorescence intensity [emission 665 nm]/[emission 620 nm]. IC50 values were calculated using a four-parameter, variable response sigmoidal dose response curve fit in PerkinElmer Signals VitroVivo.

KRas WT = target: T3, KRas WT (Homo sapiens, UniProt P01116); assay: SOS1-Catalyzed Nucleotide Exchange Assay, KRas WT; conditions: 20 nM KRas WT (1-169, GDP-loaded), 10 nM SOS1
T3 construct: Biotinylated KRas WT(1-169); biotin (biotinylated)
Protocol: as §1

T1 sequence (P01116 1-169 G12V): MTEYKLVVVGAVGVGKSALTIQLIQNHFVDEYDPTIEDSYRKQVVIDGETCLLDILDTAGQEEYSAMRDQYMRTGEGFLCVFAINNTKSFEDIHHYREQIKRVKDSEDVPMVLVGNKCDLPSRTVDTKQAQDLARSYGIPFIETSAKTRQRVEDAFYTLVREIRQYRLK
T2 sequence (P01116 1-169 G12R): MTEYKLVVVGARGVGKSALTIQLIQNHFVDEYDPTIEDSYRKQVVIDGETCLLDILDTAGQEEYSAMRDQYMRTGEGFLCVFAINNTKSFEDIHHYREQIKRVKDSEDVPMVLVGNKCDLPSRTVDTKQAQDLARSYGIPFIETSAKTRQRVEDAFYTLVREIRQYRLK
T3 sequence (P01116 1-169): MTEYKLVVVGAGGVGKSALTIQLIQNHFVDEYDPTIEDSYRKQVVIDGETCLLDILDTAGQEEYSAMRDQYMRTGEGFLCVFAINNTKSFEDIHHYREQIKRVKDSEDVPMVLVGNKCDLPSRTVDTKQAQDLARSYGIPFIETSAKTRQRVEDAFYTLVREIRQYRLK

## Oc1cc(Cl)c2c(c1)-c1ncc3c(nc(OC[C@@]45CCCN4C[C@H](F)C5)nc3c1F)N1CCCC(Cc3noc(n3)CCCCCC2)C1 (stereo partly drawn) [Compound 153a, (Z)-1^3-chloro-2^8-fluoro-2^2-(((2R,7aS)-2-fluorotetrahydro-1H-pyrrolizin-7a(5H)-yl)methoxy)-5(3,5)-oxadiazola-2(7,4)-pyrido[4,3-d]pyrimidina-3(1,3)-piperidina-1(1,2)-benzenacycloundecaphan-1^5-ol]
KRas G12V
  IC50: 100 to 1000 nM
KRas G12R
  IC50: 0.1 to 1 µM
KRas WT
  IC50: 0.1 to 1 µM

## O=C1CCc2c(Cl)cc(O)cc2-c2ncc3c(nc(OC[C@@]45CCCN4C[C@H](F)C5)nc3c2F)N2CCCC(CCN1)C2 (stereo partly drawn) [Compound 113a, 3^3-chloro-2^8-fluoro-2^2-(((2R,7aS)-2-fluorotetrahydro-1H-pyrrolizin-7a(5H)-yl)methoxy)-3^5-hydroxy-7-aza-2(4,7)-pyrido[4,3-d]pyrimidina-1(1,3)-piperidina-3(1,2)-benzenacyclononaphan-6-one]
KRas G12V
  IC50: 1000 to 10000 nM
KRas G12R
  IC50: 10 to 30 µM
KRas WT
  IC50: 1 to 10 µM

## Oc1ccc2c(c1)-c1ncc3c(nc(OC[C@@]45CCCN4C[C@H](F)C5)nc3c1F)N1CCCC(CCCCCCC2)C1 (stereo partly drawn) [Compound 143a, 2^8-fluoro-2^2-(((2R,7aS)-2-fluorotetrahydro-1H-pyrrolizin-7a(5H)-yl)methoxy)-2(4,7)-pyrido[4,3-d]pyrimidina-1(1,3)-piperidina-3(1,2)-benzenacyclodecaphan-3^5-ol]
KRas G12V
  IC50: 100 to 1000 nM
KRas G12R
  IC50: 0.1 to 1 µM
KRas WT
  IC50: ≤ 0.1 µM

## Oc1cc(Cl)c2c(c1)-c1ncc3c(nc(OC[C@@]45CCCN4C[C@H](F)C5)nc3c1F)N1CCCC(O)(CCCCCCC2)C1 (stereo partly drawn) [Compound 152a, 3^3-chloro-2^8-fluoro-2^2-(((2R,7aS)-2-fluorotetrahydro-1H-pyrrolizin-7a(5H)-yl)methoxy)-2(4,7)-pyrido[4,3-d]pyrimidina-1(1,3)-piperidina-3(1,2)-benzenacyclodecaphane-1^3,3^5-diol]
KRas G12V
  IC50: ≤ 100 nM
KRas G12R
  IC50: ≤ 0.1 µM
KRas WT
  IC50: ≤ 0.1 µM

## O=C1CCCCc2c(Cl)cc(O)cc2-c2ncc3c(nc(OC[C@@]45CCCN4C[C@H](F)C5)nc3c2F)N2CCCC(CCN1)C2 (stereo partly drawn) [Compound 115a, 3^3-chloro-2^8-fluoro-2^2-(((2R,7aS)-2-fluorotetrahydro-1H-pyrrolizin-7a(5H)-yl)methoxy)-3^5-hydroxy-9-aza-2(4,7)-pyrido[4,3-d]pyrimidina-1(1,3)-piperidina-3(1,2)-benzenacycloundecaphan-8-one]
KRas G12V
  IC50: ≤ 100 nM
KRas G12R
  IC50: ≤ 0.1 µM
KRas WT
  IC50: ≤ 0.1 µM

## O=C1CCCCc2c(Cl)cc(O)cc2-c2ncc3c(nc(OC[C@@]45CCCN4C[C@H](F)C5)nc3c2F)N2CCCC(O)(CCN1)C2 (stereo partly drawn) [Compound 140a, 3^3-chloro-2^8-fluoro-2^2-(((2R,7aS)-2-fluorotetrahydro-1H-pyrrolizin-7a(5H)-yl)methoxy)-1^3,3^5-dihydroxy-9-aza-2(4,7)-pyrido[4,3-d]pyrimidina-1(1,3)-piperidina-3(1,2)-benzenacycloundecaphan-8-one]
KRas G12V
  IC50: ≤ 100 nM

## O=C1CCCCc2c(Cl)cc(O)cc2-c2ncc3c(nc(OC[C@@]45CCCN4C[C@H](F)C5)nc3c2F)N2CCC[C@H](CCN1)C2 (single isomer, unassigned) [Compound 115b]
KRas G12V
  IC50: ≤ 100 nM
KRas G12R
  IC50: ≤ 0.1 µM
KRas WT
  KRas WT IC50 (nM): ++ ++

## Oc1cc(Cl)c2c(c1)-c1ncc3c(nc(OC[C@@]45CCCN4C[C@H](F)C5)nc3c1F)N1CCCC(O)(CCCCCC2)C1 (stereo partly drawn) [Compound 151a, 3^3-chloro-2^8-fluoro-2^2-(((2R,7aS)-2-fluorotetrahydro-1H-pyrrolizin-7a(5H)-yl)methoxy)-2(4,7)-pyrido[4,3-d]pyrimidina-1(1,3)-piperidina-3(1,2)-benzenacyclononaphane-1^3,3^5-diol]
KRas G12V
  IC50: ≤ 100 nM
KRas G12R
  IC50: ≤ 0.1 µM
KRas WT
  IC50: ≤ 0.1 µM

## O=C1CCCCc2c(Cl)cc(O)cc2-c2ncc3c(nc(OC[C@@]45CCCN4C[C@H](F)C5)nc3c2F)N2CCCC(CN1)C2 (stereo partly drawn) [Compound 141a, 3^3-chloro-2^8-fluoro-2^2-(((2R,7aS)-2-fluorotetrahydro-1H-pyrrolizin-7a(5H)-yl)methoxy)-3^5-hydroxy-9-aza-2(4,7)-pyrido[4,3-d]pyrimidina-1(1,3)-piperidina-3(1,2)-benzenacyclodecaphan-8-one]
KRas G12V
  IC50: ≤ 100 nM

## Oc1cc2c3c(c(F)ccc3c1)-c1cn(nn1)CCCCC1CCCN(C1)c1nc(OC[C@@]34CCCN3C[C@H](F)C4)nc3c(F)c-2ncc13 (stereo partly drawn) [Compound 125a, (Z)-2^8,3^7-difluoro-2^2-(((2R,7aS)-2-fluorotetrahydro-1H-pyrrolizin-7a(5H)-yl)methoxy)-4^1H-2(4,7)-pyrido[4,3-d]pyrimidina-1(1,3)-piperidina-4(4,1)-triazola-3(1,8)-naphthalenacyclooctaphan-3^3-ol]
KRas G12V
  IC50: 10000 to 30000 nM
KRas G12R
  IC50: 10 to 30 µM
KRas WT
  IC50: 1 to 10 µM

## O=C1CCCCc2c(Cl)cc(O)cc2-c2ncc3c(nc(OC[C@@]45CCCN4C[C@H](F)C5)nc3c2F)N2CCC[C@@H](CCN1)C2 (single isomer, unassigned) [Compound 115c]
KRas G12V
  IC50: ≤ 100 nM
KRas G12R
  IC50: ≤ 0.1 µM
KRas WT
  IC50: ≤ 0.1 µM
